Measurements taken from ChEMBL document CHEMBL1129515, “Synthesis and biological evaluation of1',2'-seconucleo-5'- phosphonates” (1996).

Tests used:
[1] = test system: unidentified adenovirus; assay: Inhibitory activity of compound against Adenovirus type 2 (AD2) was evaluated in vitro; Inactive; assay type: functional
[2] = test system: Human immunodeficiency virus; assay: Inhibitory activity of compound against human immunodeficiency virus (HIV) was evaluated in vitro; Inactive; assay type: functional, Human immunodeficiency virus 1
[3] = test system: Pichinde virus; assay: Inhibitory activity of compound against pichinde virus (PIC) was evaluated in vitro; Inactive; assay type: functional
[4] = test system: Punta Toro virus; assay: Inhibitory activity of compound against punto toro virus (PT) was evaluated in vitro; Inactive; assay type: functional
[5] = test system: Rift Valley fever virus; assay: (§1) Inhibitory activity of compound against […] was evaluated in vitro; Inactive; assay type: functional
[6] = test system: Sandfly fever Sicilian virus; assay: as §1; assay type: functional
[7] = test system: Vesicular stomatitis virus; assay: Inhibitory activity of compound against Vesicular stomatitis virus (VSV) was evaluated in vitro; Inactive; assay type: functional
[8] = test system: Yellow fever virus; assay: Inhibitory activity of compound against Yellow fever virus (YF) was evaluated in vitro; Inactive; assay type: functional
[9] = test system: Venezuelan equine encephalitis virus; assay: Inhibitory activity of compound against Venezuelan equine encephalomyelitis virus (VEE) was evaluated in vitro; Inactive; assay type: functional
[10] = test system: Japanese encephalitis virus; assay: Inhibitory activity of compound against japanese encephalitis virus (JBE) was evaluated in vitro; Inactive; assay type: functional

Measured: Dose

CC(O)C(CP(=O)(O)O)OCn1ccc(=O)[nH]c1=O (stereo not given)
320 µg/mL: all assays above

CCOP(=O)(C[C@H](O)[C@H](C)OCc1ccccc1)OCC
320 µg/mL: all assays above

CCOP(=O)(O)CC(OCn1cc(C)c(=O)[nH]c1=O)C(C)O (stereo not given)
320 µg/mL: all assays above

Cc1cn(COC(CP(=O)(O)O)C(C)O)c(=O)[nH]c1=O (stereo not given)
320 µg/mL: all assays above

CCOP(=O)(O)CC(OCn1ccc(=O)[nH]c1=O)C(C)O (stereo not given)
320 µg/mL: all assays above

CC(O)C(CP(=O)(O)O)OCn1ccc(N)nc1=O (stereo not given)
320 µg/mL: all assays above

CCOP(=O)(C[C@H](O)[C@H](COCc1ccccc1)OCc1ccccc1)OCC
320 µg/mL: all assays above

Cc1cn(COC(CP(=O)(O)O)C(O)CO)c(=O)[nH]c1=O (stereo not given)
320 µg/mL: all assays above

Cc1cn(COC2CP(=O)(Oc3ccccc3)OC2C)c(=O)[nH]c1=O (stereo not given)
320 µg/mL: all assays above
